Source: patent publication US11447525B2 (NIIGATA UNIVERSITY, priority 2018, dated 2022)
Non-standard residues stand in square brackets, D forms with d. Residues, ends and D or L forms follow the SMILES beside them. *: point of attachment. 5FAM = O=C1OC2(c3ccc(O)cc3Oc3cc(O)ccc32)c2ccc(C(=O)*)cc21; NMeR = CN[C@@H](CCCNC(=N)N)C(=O)O

Tests used:
[1] = test system: scirrhous pancreatic cancer model mice (BxPC3, MIA-Paca2, AsPC1 or Capan-2 cells with hMSC); test: Selective absorption of FAM-NmLL in tissues of scirrhous pancreatic cancer model mice (Test Example 7); type: in vivo, NOD/SCID, KPC and KC mouse; conditions: 200 μg into the caudal vein, 30 minutes after administration; all of the mouse models
Description: FAM-NmLL was administered to pancreatic cancer model mice having scirrhous carcinoma, and the selective absorption of the FAM-NmLL in various tissues of the mouse was confirmed. A scirrhous pancreatic cancer model mouse having scirrhous carcinoma that forms abundant tumor-stroma interactions was produced in accordance with the method disclosed in the above Reference Document 1. Specifically, a 6-week old NOD/SCID mouse (CLEA Japan Inc., Japan), a Pdx1-Cre/KRAS^G12D (KC) mouse having a mutation in K-Ras, and a Pdx1-Cre/KRAS^G12D; p53^R172H (KPC) mouse having pancreatic cancer-specific mutations in K-Ras and p53 were raised under pathogen-free conditions. […]
FAM-NmLL (200 μg) was injected into the caudal vein of each of the obtained scirrhous pancreatic cancer model mice. Subsequently, the pharmacokinetics of the peptide 30 minutes after administration were analyzed by tissue analysis of the freshly dissected specimen of the peptide-administered mouse. […]

[2] = test system: pancreatic cancer cells (BxPC3, PK-8, MIA-Paca2); test: Accumulation of FAM-labeled peptides in cells, inverted fluorescence microscope (Test Example 2); type: cell-based, human; conditions: 2 μM, 37° C., 2 hours
Description: Tests were conducted to confirm the accumulation of each peptide in each of the cells shown below in Table 8. Further, among the peptides shown below in Table 9, the FAM-PCPP11 used in Test Example 1, the LL peptide in which the N-terminus had been FAM-labeled (FAM-LL), and the Ld peptide in which the N-terminus had been FAM-labeled (FAM-Ld) were used.
Each of FAM-PCPP11, FAM-LL and FAM-Ld was added to each of the cells shown in Table 8 in an amount sufficient to achieve a final concentration in the medium of 2 μM, and following cultivation of the cells at 37° C. for 2 hours, the sample was washed 3 times with a medium containing no peptide to remove any peptide within the medium. Subsequently, the incorporation of each of the peptides into each of the cells was evaluated visually using an inverted fluorescence microscope. Prior to the microscopic examination, the culture supernatant to which the peptide had been added was removed, and following washing three times with 1×PBS (−), a trypsin treatment was conducted to remove the adherent cells, and the resultant was immediately transferred into a new 96-well plate and once again suspended in fresh culture solution before the microscopic examination was performed. In FIG. 8A, “L” indicates the cells to which FAM-PCPP11 was added, “LL” indicates the cells to which FAM-LL was added, and “Ld” indicates the cells to which FAM-Ld was added. Further, the fluorescent images in the BxPC3 cells indicate a representative example of pancreatic cancer cells.
Furthermore, FIG. 8B is a graph quantifying the fluorescence detected in each of the above cells in FIG. 8A, with the fluorescence intensity detected in each cell shown relative to a value of 1.0 for the fluorescence detected in the H2110 cells, which is a cell line derived from an adenocarcinoma in a human non-small-cell lung cancer system, to which each of the FAM-PCPP11 and FAM-LL peptides had been added.
Further, each of FAM-PCPP11, FAM-LL and FAM-NmLL was added to each of the cells shown in Table 8 in an amount sufficient to achieve a final concentration in the medium of 2 μM, and following cultivation of the cells at 37° C. for 2 hours, the sample was washed 3 times with a medium containing no peptide to remove any peptide within the medium. Subsequently, the incorporation of each of the peptides into each of the cells was evaluated visually using an inverted fluorescence microscope. […]

## C[C@@H](O)[C@H](NC(=O)[C@@H](NC(=O)[C@@H]1CCCN1C(=O)[C@H](CCCNC(=N)N)NC(=O)[C@H](CCCNC(=N)N)NC(=O)CNC(=O)[C@@H]1CCCN1C(=O)[C@H](CCCCN)NC(=O)[C@H](Cc1c[nH]cn1)NC(=O)[C@H](Cc1c[nH]c2ccccc12)NC(=O)[C@@H](NC(=O)[C@@H](NC(=O)[C@@H]1CCCN1C(=O)[C@H](CCCNC(=N)N)N(C)C(=O)[C@H](CCCNC(=N)N)NC(=O)c1ccc2c(c1)C(=O)OC21c2ccc(O)cc2Oc2cc(O)ccc21)[C@@H](C)O)[C@@H](C)O)[C@@H](C)O)C(=O)N[C@@H](Cc1c[nH]c2ccccc12)C(=O)N[C@@H](Cc1c[nH]cn1)C(=O)N[C@@H](CCCCN)C(=O)N1CCC[C@H]1C(=O)O [FAM-NmLL] (5FAM-R[NMeR]PTTWHKPGRRPTTWHKP-OH; C-terminus assumed)
[1]
  absorption into the cancer cell nests inside the tumor tissues: strong absorption
  absorption into the tumor tissues (main lesions and metastatic lesions): strong absorption
[2]
  fluorescence compared with the sample containing FAM-PCPP11: stronger fluorescence
